Measured values from US20030027141A1, “Combinatorial oligonucleotide PCR: a method for rapid, global expression analysis” (Board of Regents, The University of Texas System, priority 1999, published 2003).

Assays:
[1] = tested on: HME87 line of normal human mammary epithelial cells; test: DNA damage in BPDE-treated cells; format: cell-based; conditions: 30 min BPDE treatment
Procedure: Control cultures were treated with tetrahydrofuran only.

[2] = tested on: HME87 line of normal human mammary epithelial cells; test: COP analysis of gene expression after carcinogen (BPDE) treatment; format: cell-based
[3] = tested on: HME87 line of normal human mammary epithelial cells; conditions: 30 min BPDE treatment; for at least 48 h
[4] = tested on: HME87 line of normal human mammary epithelial cells; test: Cell cycle parameters after BPDE treatment; format: cell-based
Procedure: Data for several genes whose expression did change at one or more time points is listed in Table 11 with two prominent examples shown in FIG. 20. The most dramatic change was in the expression of the transcription factor ATF3, which increased 8-9 fold at 4 and 10 h, then dropped to a 2.4-fold increase at 24 h. Changes in ATF3 expression in response to damage induced by BPDE or related compounds have not previously been described, and it will be very interesting to determine both the mechanism and the consequences of this induction. The p21/WAF1 gene, a downstream target of p53, is a mediator of G1 arrest in response to DNA damage (Levine, 1997). […] Thus, the COP analyses performed in this system have given a variety of clues concerning mechanisms operative in cells soon after BPDE treatment.

[5] = at one or more time points after BPDE treatment

## OC1c2cc3ccc4cccc5ccc(c2C2OC2C1O)c3c45 (racemic) [BPDE, ±7r,8t-dihydroxy-9,10t-epoxy-7,8,9,10-tetrahydro-benzo[a]pyrene]
[1]
  DNA damage in the treated cells: induces a high level of DNA damage
[2]; 4 h after BPDE treatment
  ACTB expression E/C: 1.1 ± 0.2
  ATF3 expression E/C: 7.8 ± 4.0
  Beclin expression E/C: 2.1 ± 1.4
  CEBPE expression E/C: 0.9 ± 0.3
  GADD45 expression E/C: 2.1 ± 0.7
  LMNA expression E/C: 0.7 ± 0.2
  RPL23a expression E/C: 0.6 ± 0.1
  RPL30 expression E/C: 0.8 ± 0.1
  RPL35 expression E/C: 1.2 ± 0.3
  RPP1 expression E/C: 1.4 ± 0.1
  RPS7 expression E/C: 1.1 ± 0.2
  RPS15a expression E/C: 1.0 ± 0.3
  RPS26 expression E/C: 1.2 ± 0.3
  RPS29 expression E/C: 1.1 ± 0.2
  TP53 expression E/C: 1.1 ± 0.4
  p21 expression E/C: 1.0 ± 0.1
[2]; 4 h after BPDE treatment, E=BPDE, C=solvent only
  RPS27 expression E/C: 0.9 ± 0.3
[2]; 10 h after BPDE treatment
  ACTB expression E/C: 0.9 ± 0.2
  ATF3 expression E/C: 9.2 ± 3.9
  BTF3 expression E/C: 1.0 ± 0.2
  Beclin expression E/C: 2.0 ± 1.1
  GADD45 expression E/C: 1.9 ± 0.7
  LMNA expression E/C: 1.1 ± 0.3
  PGK expression E/C: 1.0 ± 0.2
  RPL23a expression E/C: 1.1 ± 0.3
  RPL30 expression E/C: 1.0 ± 0.1
  RPL35 expression E/C: 1.1 ± 0.4
  RPP1 expression E/C: 1.0 ± 0.4
  RPS7 expression E/C: 1.4 ± 0.5
  RPS15a expression E/C: 1.4 ± 0.6
  RPS16 expression E/C: 0.8 ± 0.1
  RPS26 expression E/C: 1.3 ± 0.5
  RPS27 expression E/C: 1.2 ± 0.4
  RPS29 expression E/C: 1.3 ± 0.6
  TP53 expression E/C: 0.9 ± 0.1
  p21 expression E/C: 1.1 ± 0.2
[2]; 24 h after BPDE treatment
  ACTB expression E/C: 1.3 ± 0.4
  ATF3 expression E/C: 2.4 ± 0.7
  BTF3 expression E/C: 0.9 ± 0.2
  CEBPE expression E/C: 1.0 ± 0.3
  GADD45 expression E/C: 0.8 ± 0.4
  IMPD expression E/C: 0.8 ± 0.2
  LMNA expression E/C: 0.9 ± 0.3
  MYC expression E/C: 1.2 ± 0.5
  NFKB expression E/C: 1.5 ± 0.4
  PGK expression E/C: 1.1 ± 0.2
  RPL23a expression E/C: 1.0 ± 0.2
  RPL30 expression E/C: 1.0 ± 0.2
  RPL35 expression E/C: 1.2 ± 0.6
  RPP1 expression E/C: 1.7 ± 1.0
  RPS7 expression E/C: 1.7 ± 0.8
  RPS15a expression E/C: 1.2 ± 0.3
  RPS16 expression E/C: 0.9 ± 0.2
  RPS26 expression E/C: 1.5 ± 0.6
  RPS27 expression E/C: 0.9 ± 0.2
  RPS29 expression E/C: 1.7 ± 1.2
  SL1 expression E/C: 1.0 ± 0.3
  TP53 expression E/C: 0.8 ± 0.3
  p21 expression E/C: 2.3 ± 0.7
[2]; at 4 and 10 h after BPDE treatment
  increase in expression of transcription factor ATF3: 8-9 fold
[2]; at 24 h after BPDE treatment
  increase in expression of transcription factor ATF3: 2.4 fold
  increase of p21/WAF1 gene expression: about 2 fold
[2]; [5]
  expression of beclin (protein related to apoptosis): upregulated
  expression of transcription factor CP2: upregulated
[2]; early times after BPDE treatment
  induction of p21/WAF1 gene: not induced
[2]; one or more time points after BPDE treatment
  expression of the majority of over 450 genes analyzed: no significant changes in expression
[3]
  toxicity of treatment: not demonstrably toxic
[4]; 4 and 10 h after BPDE treatment
  G1 arrest: no G1 arrest
[4]; by 24 h after BPDE treatment
  G1 arrest: appear to be a G1 arrest
